Test results: patent US9884863B2, “STAT3 inhibitor” (Board of Regents, The University of Texas System, priority 2013, dated 2018)

Key:
[1] = system: STAT family, STAT3-dependent genes and JAKs in MDA-MB-231 cells; assay: Western blot analysis, MDA-MB-231 cells; type: cell-based, human
Method: Blocking STAT3 signaling in many different tumor cells leads to induce growth arrest and apoptosis (Turkson, J. et al., 2000; Bromberg, J., 2002; Zhang, X. et al., 2012).
Western Blot Analysis. Protein levels were determined by Western blot using the previously described methods (Shen, Q. et al., 2008). Total cell lysates were prepared from MDA-MB-231 cells. Protein concentrations were measured using the BCA Protein Assay Reagent (Pierce, Rockford, Ill., USA). Equal amounts of total cellular protein extract (40 μg) were resuspended in denaturing sample loading buffer (0.5 M Tris-HCl, pH 6.8, 10% SDS, 0.1% bromophenol blue, and 20% glycerol), separated by electrophoresis on a 10% polyacrylamide SDS-PAGE gel and then electrophoretically transferred to a nitrocellulose membrane (Thermo Scientific, Ill., USA) at 100 Volts for 1 h at 4° C. The membrane was then incubated in a blocking solution containing 5% non-fat milk and 1% Tween 20 in TBS for 1 h. The membrane was then incubated with antibodies specific for: phospho-STAT3-pY705 (1:3000, Epitomics, #2236-1), STAT3 (1:2000, Cell Signaling, #4904), Caspase-3-cleaved (1:2000, Epitomics, #1476-1), Cyclin D1 (1:10000, Epitomics, #2261-1) and β-actin (1:10000, Sigma, clone AC-15). An anti-rabbit or anti-mouse secondary antibody (Amersham, Piscataway, N.J.) was used at 1:4000 dilution. The Western blotted bands were visualized using ECL procedure according to the manufacturer's instructions (Amersham).

[2] = system: MDA-MB-231 xenograft tumors; assay: MDA-MB-231 xenograft tumor growth in nude mice; type: in vivo; details: oral gavage daily for 14 days
MDA-MB-231 cells = assay: Apoptosis assay (annexin V, flow cytometry); type: cell-based, human; details: MDA-MB-231
Method: Cell Cycle Assay and Apoptosis Assay: Cell cycle and apoptosis kits (#MCH100106 and #MCH100105, Millipore, Mass.) were used. […] 24 and 48 h after drug treatment, both adherent and floating cells were collected, washed once with PBS and fixed in cold ethanol for at least 4 h before cell cycle analysis. The fixed cells were then washed twice with PBS and resuspended in 200 μL cell cycle detection reagent, incubated for 30 minutes in dark at room temperature. Cell cycle distribution was measured by the Muse Cell Analyzer with Muse™ Cell Cycle. Similarly, MDA-MB-231 cells with the same treatments were prepared for apoptosis assay. After washing with PBS, resuspended cells were incubated with 100 μL PBS containing 1% BSA and 100 μL Annexin V and dead cell detection reagent in dark for 20 minutes at room temperature. Apoptosis was measured immediately using the Muse Cell Analyzer with the Muse™ Apoptosis Program.

[3] = system: MDA-MB-231 and MDA-MB-468 cells; assay: Colony formation assay; type: cell-based, human; details: 15 days, starting at 0.625 μM
Method: Colony Formation Assay: MDA-MB-468 and MDA-MB-231 cells were seeded in 6-well plates with a density of 800-3000 cells/well, respectively. […] The culture media with the compounds were changed every 72 h. After two weeks, the wells were washed twice with PBS buffer and 2 mL of 0.01% crystal violet staining buffer was added and incubated for 10 min. The wells were then washed with PBS for 5 min for three times, and allowed to dry. Photographs were then taken and the density of the entire culture well area was digitally measured using the GelCount™ instrument (Oxford Optronix, UK). Experiments were performed in triplicate and the density data were analyzed with one-way ANOVA using GraphPad Prizm 6 software. Error bars represent standard deviation.

[4] = system: STAT family, STAT3-dependent genes and JAKs in MDA-MB-468 cells; assay: Western blot analysis, MDA-MB-468 cells; type: cell-based, human
[5] = system: pSTAT3 nuclear translocation in MDA-MB-231 cells; assay: IL-6 induction of STAT3 phosphorylation and nuclear translocation; type: cell-based, human; details: treatment for 6 h, IL-6 1 h
Method: IL-6 Induction of STAT3 Phosphorylation and Nuclear Translocation: A total of 5×10^4 MDA-MB-231 cells were seeded into each well of the chamber slides (#154526, Thermo, N.Y.) and cultured overnight. Cells were starved up to 24 h prior to the designated drug treatment. […] After stimulation with IL-6 (50 ng/mL) for 1 h, the culture media were aspirated and followed by DPBS (Gibco, Auckland, NZ) wash twice. Then cells were fixed with 4% paraformaldehyde for 10 min, followed by permeabilization using 100% methanol, blocking buffer for 1 h at room temperature, and incubation with primary antibodies at 4° C. overnight. After incubation with secondary antibody for 1 h, slides were stained with DAPI (Invitrogen, CA) for 5 min, and then anti-fade mounting media added to each chamber. Cells were then analyzed under immunofluorescence microscope with laser-scanning confocal imaging system (Nikon TS100F).

[6] = system: STAT3 and pSTAT3 in MDA-MB-453 and BT474 cells; assay: Transient transfection of STAT3 expression vector and Western blot; type: cell-based, human; details: 10 μM, 12 h
Method: Transient Transfection of STAT3 Expression Vector: Transient transfection was conducted using Fugene HD reagent (Invitrogen, N.Y., USA) per manufacturer's instructions. Briefly, MDA-MB-453 and BT474 cells were seeded in 100 mm^2 culture dishes and incubated overnight. Culture medium was changed to FBS free media 1 h prior to transfection, and 15 μg STAT3C over-expression vector (#24983, Addgene, Mass., USA), 45 μL Fugene HD together with 879 μL opti-MEM (Invitrogen, N.Y.) was added into each dish. Eight hours after transfection, the media was removed and changed to regular media containing 10% FBS. […] After 12 h treatment, total cell lysates were collected and proceeded to Western blot analysis.

[7] = system: STAT3 and pSTAT3 in MDA-MB-231 xenograft tumors; assay: IHC and Western blot of xenograft tumors; type: in vivo, mice
Text: Immunohistochemistry (IHC): Paraffin blocks of the collected tissue were sectioned into 4 μm thickness and stained with H&E as a reference. All slides were subjected to phospho-STAT3 (Y705) IHC with ABC staining method. Rabbit or mouse IgG ABC kit was purchased from Vector Laboratories (Burlingame, Calif., USA) and ABC staining reagents were purchased from Sigma Aldrich (Louis, Mo., USA). PBS was used instead of primary antibody as a negative control.

STAT3 = STAT3 (Homo sapiens, UniProt P40763); details: Schust et al. 2006; read-out: IC50, binding to STAT3; cited from earlier work
Sequence of STAT3 (P40763 whole entry, species assumed): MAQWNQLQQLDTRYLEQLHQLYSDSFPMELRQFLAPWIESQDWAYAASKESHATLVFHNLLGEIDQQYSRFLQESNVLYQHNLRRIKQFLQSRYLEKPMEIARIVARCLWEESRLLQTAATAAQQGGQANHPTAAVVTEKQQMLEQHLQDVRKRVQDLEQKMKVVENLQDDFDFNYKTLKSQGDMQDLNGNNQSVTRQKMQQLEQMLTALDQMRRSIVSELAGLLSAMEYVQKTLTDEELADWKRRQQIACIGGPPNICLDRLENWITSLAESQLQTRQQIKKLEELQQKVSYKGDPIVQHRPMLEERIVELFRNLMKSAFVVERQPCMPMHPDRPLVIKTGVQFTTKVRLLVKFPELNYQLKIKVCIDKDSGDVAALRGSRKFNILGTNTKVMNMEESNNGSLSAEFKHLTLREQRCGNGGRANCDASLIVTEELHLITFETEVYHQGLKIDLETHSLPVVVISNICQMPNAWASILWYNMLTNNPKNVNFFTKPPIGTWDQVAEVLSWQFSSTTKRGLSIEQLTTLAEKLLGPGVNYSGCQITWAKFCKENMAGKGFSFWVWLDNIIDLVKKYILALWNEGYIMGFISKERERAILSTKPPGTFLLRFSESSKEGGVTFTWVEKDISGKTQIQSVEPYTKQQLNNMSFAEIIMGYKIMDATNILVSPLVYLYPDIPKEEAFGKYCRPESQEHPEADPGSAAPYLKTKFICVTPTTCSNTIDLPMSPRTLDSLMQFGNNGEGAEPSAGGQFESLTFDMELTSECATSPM

With `NCCOc1ccc(Cl)cc1C(=O)Nc1ccc([N+](=O)[O-])cc1Cl` [HJC0152] the “JAK1 or pJAK1 (Y1022)” value ([1]; MDA-MB-231) was “no changes”, the Mcl-1 ([1]; MDA-MB-231) was “decrease starting from 6 h” and the “STAT1 and active STAT1 at Y701 or S727” value ([1]; MDA-MB-231) was “no significant changes”. For the same compound, the “STAT2, STAT4 and STAT6” value ([1]; MDA-MB-231) was “minimal changes”, the “cleaved caspase 3” value ([1]; MDA-MB-231) was “induced at 12 h” and the “pSTAT3 at S727 residue” value ([1]; MDA-MB-231) was “continuous inhibition to 24 h”. The STAT5 ([1]; MDA-MB-231, 5 and 10 μM) was “transient decrease at 6 h”, the pSTAT5 ([1]; MDA-MB-231, 12 and 24 h, 5 and 10 μM) was “moderate decrease” and the “pSTAT3 at Y705 residue” value ([1]; MDA-MB-231, 6 h, recovered at 24 h) was “significantly decreased”. The “Bcl-xl protein and cyclin D1” value ([1]; MDA-MB-231, 24 h) was “not altered”, the “JAK2 and pJAK2 (Y1007 & Y1008)” value ([1]; MDA-MB-231, from 6 h, 5 μM and 10 μM) was “apparent down-regulation” and the “reduction in tumor growth, 25 mg/kg” value [2] was “approximately 80%”. The “apoptosis at 1 μM” value (MDA-MB-231 cells) was 8%, the “apoptosis at 10 μM” value (MDA-MB-231 cells) was 23% and the colony formation [3] was “significant suppression of colony formation”. For the same compound, the JAK3 ([4]; MDA-MB-468) was “minimal alterations”, the STAT1 ([4]; MDA-MB-468) was “minimal changes” and the “cleaved PARP1” value ([4]; MDA-MB-468) was “induced from 6 h”. The “JAK2 and pJAK2” value ([4]; MDA-MB-468, 12 h, recovered at 24 h) was “transient down-regulation”, the JAK1 protein ([4]; MDA-MB-468, 12 h and 24 h) was “decreased level” and the “Bcl-2 and cyclin D1” value ([4]; MDA-MB-468, from 6 h) was “decreased level”. The “pSTAT1 at Y701 and S727” value ([4]; MDA-MB-468, from 6 h, 10 μM) was “down-regulation”, the “STAT5 and pSTAT5 (Y694)” value ([4]; MDA-MB-468, from 12 h, 5 μM) was “decreased level” and the “STAT3 and pSTAT3” value ([4]; MDA-MB-468, starting at 3 h) was “down-regulation”. For the same compound, the “IL-6 induced nuclear translocation of pSTAT3” value [5] was “blocked”, the “STAT3 and pSTAT3 levels after forced expression of STAT3” value [6] was “significantly decreased” and the “pSTAT3 (Y705) level in xenograft tumors, IHC” value ([7]; 25 mg/kg oral) was “significant effect on reducing pSTAT3 level”. The “STAT3 and pSTAT3 (Y705 and S727) in tumor lysates, Western blot” value ([7]; oral gavage 14 days) was “decreased”.

In the case of `O=[N+]([O-])c1ccc2c(c1)S(=O)(=O)C=C2` [Stattic], the IC50 (STAT3) is given as 5.1 µM.
